Experimental data from BindingDB's records for PubMed 11306677 (Upr 9023, 2001).
Where “and” joins values, the source holds several entries; their conditions need not be identical. Identical values can stand only once.

Legend:
[1] = molecular target: Metabotropic glutamate receptor 1 (Rattus norvegicus, UniProt P23385)
[2] = molecular target: Metabotropic glutamate receptor 2 (Homo sapiens, UniProt Q14416)
[3] = molecular target: Metabotropic glutamate receptor 5 (Rattus norvegicus, UniProt P31424)
Chain of Metabotropic glutamate receptor 5 (P31424 whole entry): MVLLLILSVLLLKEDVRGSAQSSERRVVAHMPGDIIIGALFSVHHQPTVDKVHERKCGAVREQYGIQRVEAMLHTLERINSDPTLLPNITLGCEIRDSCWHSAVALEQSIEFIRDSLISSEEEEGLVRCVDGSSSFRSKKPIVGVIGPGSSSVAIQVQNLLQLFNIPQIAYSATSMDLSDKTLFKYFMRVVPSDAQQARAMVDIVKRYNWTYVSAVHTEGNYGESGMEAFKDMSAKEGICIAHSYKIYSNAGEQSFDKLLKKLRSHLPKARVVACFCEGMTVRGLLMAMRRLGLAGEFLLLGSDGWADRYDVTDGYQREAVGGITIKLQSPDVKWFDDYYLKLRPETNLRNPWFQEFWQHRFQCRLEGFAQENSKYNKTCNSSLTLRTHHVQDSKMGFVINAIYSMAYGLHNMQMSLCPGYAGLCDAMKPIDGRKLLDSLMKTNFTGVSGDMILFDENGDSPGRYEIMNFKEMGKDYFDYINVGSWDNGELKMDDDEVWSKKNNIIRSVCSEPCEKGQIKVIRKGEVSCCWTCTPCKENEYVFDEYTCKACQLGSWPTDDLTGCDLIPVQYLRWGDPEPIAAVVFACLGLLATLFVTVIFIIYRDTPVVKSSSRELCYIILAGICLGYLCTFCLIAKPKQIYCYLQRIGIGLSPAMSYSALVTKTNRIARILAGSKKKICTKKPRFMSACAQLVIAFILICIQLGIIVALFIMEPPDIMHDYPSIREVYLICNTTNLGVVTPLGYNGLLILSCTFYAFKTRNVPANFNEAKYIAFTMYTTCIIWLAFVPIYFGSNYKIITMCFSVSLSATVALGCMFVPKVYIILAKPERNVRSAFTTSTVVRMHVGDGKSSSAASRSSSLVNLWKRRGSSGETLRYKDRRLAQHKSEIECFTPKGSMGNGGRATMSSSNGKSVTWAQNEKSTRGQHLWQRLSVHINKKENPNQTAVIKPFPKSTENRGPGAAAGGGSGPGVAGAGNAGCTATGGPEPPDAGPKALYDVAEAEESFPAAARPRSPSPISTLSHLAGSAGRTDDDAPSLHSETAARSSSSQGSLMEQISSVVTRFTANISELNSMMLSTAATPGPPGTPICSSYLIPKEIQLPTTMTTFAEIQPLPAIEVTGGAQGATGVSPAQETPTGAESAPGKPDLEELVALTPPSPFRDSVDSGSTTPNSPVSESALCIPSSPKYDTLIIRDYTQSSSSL

Chain of Metabotropic glutamate receptor 2 (Q14416 whole entry): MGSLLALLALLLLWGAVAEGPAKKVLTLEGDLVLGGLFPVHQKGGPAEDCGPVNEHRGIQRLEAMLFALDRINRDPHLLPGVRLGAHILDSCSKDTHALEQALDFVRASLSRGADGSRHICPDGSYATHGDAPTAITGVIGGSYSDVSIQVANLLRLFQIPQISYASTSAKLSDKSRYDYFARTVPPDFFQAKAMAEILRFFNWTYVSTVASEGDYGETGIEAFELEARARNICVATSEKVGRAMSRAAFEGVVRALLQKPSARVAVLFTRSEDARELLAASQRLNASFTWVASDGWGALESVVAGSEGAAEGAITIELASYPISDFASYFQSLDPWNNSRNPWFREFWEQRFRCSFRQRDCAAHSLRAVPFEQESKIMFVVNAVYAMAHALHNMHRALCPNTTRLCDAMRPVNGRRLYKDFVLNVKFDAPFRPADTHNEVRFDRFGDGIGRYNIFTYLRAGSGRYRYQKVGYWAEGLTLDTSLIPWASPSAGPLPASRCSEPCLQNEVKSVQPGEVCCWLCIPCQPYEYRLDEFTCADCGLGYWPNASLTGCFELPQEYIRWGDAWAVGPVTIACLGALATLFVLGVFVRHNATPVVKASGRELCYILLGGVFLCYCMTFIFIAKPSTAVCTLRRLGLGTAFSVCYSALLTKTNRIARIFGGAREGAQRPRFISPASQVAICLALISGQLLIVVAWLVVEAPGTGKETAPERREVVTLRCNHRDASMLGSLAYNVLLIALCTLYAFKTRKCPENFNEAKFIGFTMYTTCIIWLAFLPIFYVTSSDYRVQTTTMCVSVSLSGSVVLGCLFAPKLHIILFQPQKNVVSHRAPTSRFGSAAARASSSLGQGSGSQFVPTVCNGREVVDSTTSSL
Chain of Metabotropic glutamate receptor 1 (P23385 whole entry): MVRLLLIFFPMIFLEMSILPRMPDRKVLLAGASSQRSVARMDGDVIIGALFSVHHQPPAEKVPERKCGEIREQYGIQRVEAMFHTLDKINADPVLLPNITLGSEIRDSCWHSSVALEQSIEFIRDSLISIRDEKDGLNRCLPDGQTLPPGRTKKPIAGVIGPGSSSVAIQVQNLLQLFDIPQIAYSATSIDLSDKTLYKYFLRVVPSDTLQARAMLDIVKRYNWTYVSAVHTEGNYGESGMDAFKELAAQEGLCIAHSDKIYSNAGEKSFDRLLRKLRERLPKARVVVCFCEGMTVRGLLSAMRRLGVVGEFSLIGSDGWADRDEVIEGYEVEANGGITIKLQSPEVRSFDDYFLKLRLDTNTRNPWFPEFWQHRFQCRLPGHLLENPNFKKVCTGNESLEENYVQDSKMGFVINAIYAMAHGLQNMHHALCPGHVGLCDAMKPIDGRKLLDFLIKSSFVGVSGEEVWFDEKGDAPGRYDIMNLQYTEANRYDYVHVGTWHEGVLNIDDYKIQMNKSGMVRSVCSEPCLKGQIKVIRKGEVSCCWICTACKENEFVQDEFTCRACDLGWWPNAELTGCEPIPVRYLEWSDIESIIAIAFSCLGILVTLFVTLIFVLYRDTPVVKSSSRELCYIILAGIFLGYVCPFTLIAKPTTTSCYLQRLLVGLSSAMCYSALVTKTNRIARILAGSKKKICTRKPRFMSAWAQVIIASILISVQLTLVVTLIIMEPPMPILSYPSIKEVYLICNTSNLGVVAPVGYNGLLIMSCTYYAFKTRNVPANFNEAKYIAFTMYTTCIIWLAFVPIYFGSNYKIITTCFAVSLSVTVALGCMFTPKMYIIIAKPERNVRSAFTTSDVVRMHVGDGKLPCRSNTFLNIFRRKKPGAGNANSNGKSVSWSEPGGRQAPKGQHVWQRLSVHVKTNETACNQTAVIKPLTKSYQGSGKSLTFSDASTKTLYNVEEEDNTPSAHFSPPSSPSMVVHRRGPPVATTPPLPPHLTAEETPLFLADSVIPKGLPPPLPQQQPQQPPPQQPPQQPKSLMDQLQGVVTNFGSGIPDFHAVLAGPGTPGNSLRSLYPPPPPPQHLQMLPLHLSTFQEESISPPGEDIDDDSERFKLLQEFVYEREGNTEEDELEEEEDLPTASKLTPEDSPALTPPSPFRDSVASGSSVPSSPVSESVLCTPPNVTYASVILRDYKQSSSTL

Q: `C=C1C[C@@H]2COC(=O)[C@]2(Cc2ccc3ccccc3c2)C1` was tested. Which Ki [1] did it give?
A: > 10000 nM

Q: What about the Ki [2] of the same compound?
A: 140 nM

Q: What about the Ki [3] of the same compound?
A: 240 nM and 500 nM
